# Reference: PubChem BioAssay AID623930 (Southern Research Specialized Biocontainment Screening …, 2012)
# Active and inactive are the calls of the source.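 How the source made its calls: active means viability below 70% at one or more concentrations in every replicate; inactive means viability above 70% at all doses, or replicates disagree.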
# Test system: not listed separately
# Test: viability of Vero E6 cells – cell-based, synthesized analogs, extended characterization 2, cytotoxicity control for West Nile virus antiviral project, SAR follow-up (AID 623930)
# Conditions: Vero E6 viability, CellTiter-Glo luminescence, 96 h; at 100 µM (top of the series)
row,SMILES,viability
1,O=C(CSc1nc2ccccc2c(=O)n1-c1ccc(Cl)c(Cl)c1)Nc1ccc2c(c1)CCC2,75.2% (inactive)
2,O=C(CSc1nc2c(F)cccc2c(=O)n1-c1ccc(Cl)c(Cl)c1)Nc1nc(-c2ccccc2)cs1,73.3% (inactive)
3,O=C(CSc1nc2ccccc2c(=O)n1-c1ccc(Cl)c(F)c1)c1nc(-c2ccccc2)cs1,72% (inactive)
4,O=C(CSc1nc2ccccc2c(=O)n1-c1c(Cl)cccc1Cl)Nc1ccc2c(c1)CCC2,74.6% (inactive)
5,O=C(CSc1nc2cccc(F)c2c(=O)n1-c1ccc(Cl)c(Cl)c1)Nc1ccc2c(c1)CCC2,71.9% (inactive)
6,N#Cc1ccc(-n2c(SCC(=O)Nc3nc(-c4ccccc4)cs3)nc3ccccc3c2=O)cc1F,78.4% (inactive)
7,O=C(CSc1nc2c(F)cccc2c(=O)n1-c1cc(Cl)cc(Cl)c1)Nc1nc(-c2ccccc2)cs1,76% (inactive)

# Test system: Vero E6 viability, CellTiter-Glo luminescence, 96 h
# Test: as above
# Conditions: not given
row,SMILES,CC50 [µM]
1,O=C(CSc1nc2ccccc2c(=O)n1-c1c(Cl)cccc1Cl)Nc1nc(-c2ccccc2)cs1,52.6
2,O=C(CSc1nc2c(F)cccc2c(=O)n1-c1ccc(Cl)c(Cl)c1)Nc1ccc2c(c1)CCC2,34.5
3,Cc1cc(-n2c(SCC(=O)Nc3nc(-c4ccccc4)cs3)nc3ccccc3c2=O)ccc1F,87.8
4,O=C(CSc1nc2c(Cl)cccc2c(=O)n1-c1cc(Cl)cc(Cl)c1)Nc1ccc2c(c1)CCC2,72.2
5,O=C(CSc1nc2ccccc2c(=O)n1-c1cc(F)cc(F)c1)Nc1nc(-c2ccccc2)cs1,82.9
6,O=C(CSc1nc2c(F)cccc2c(=O)n1-c1cc(Cl)cc(Cl)c1)Nc1ccc2c(c1)CCC2,77
